Patent US8273389B2, “Compositions comprising cinnamon oil (and/or its component cinnamaldehyde) and diallyl disulfide, their formulations, and methods of use” (Valent BioSciences Corporation, priority 2008, dated 2012)

Test system: Meloidogyne incognita (Root-knot nematode)
Assay: Greenhouse pot test, root galling of cucumber seedlings by root-knot nematode
Type: in vivo
Conditions: 25 ml soil drench, 800 J2 per pot, rated after 12-15 days, 0 = no galls, 9 = heavy galling; for Average Gall Rating (0-9): Example 2, 300 ppm AI (combined total for mixtures), nematode control 9; for Gall Rating (0-9): Example 3, 300 ppm AI (combined total for mixture), nematode control 8.25
Description: Tests are conducted in 2″ pots containing 125 grams non-pasteurized 2:1 sand soil mix containing 2 cucumber seedlings at the 1st true leaf stage (var. Straight Eight). Each treatment consists of 4 replicate pots. Application of test materials is carried out by drenching each pot with 25 milliliters of an aqueous dispersion of the formulation being tested. Several hours after the test materials are applied, 800, second stage juveniles (J2) of freshly hatched Meloidogyne incognita (Root-knot nematode), are applied to each pot with the exception of the untreated control. The pots are maintained for 12-15 days at standard greenhouse temperature and lighting conditions and watered as needed for the duration of the test. At harvest, the soil is removed from the roots by rinsing the roots in water. The roots are then rated for galling on a scale from 0-9 where 0 represents no galls and 9 represents heavy galling.
Tests are conducted in 2″ pots, as explained in Example 2 above.

SMILES | Average Gall Rating (0-9) | Gall Rating (0-9)
O=CC=Cc1ccccc1 [Cinnamaldehyde, cinnamaldehyde] | 7.75 | 9
C=CCSSCC=C [Allyl disulfide (BAB-0294-75), diallyl disulfide] | 5 | 3.25
